We go through 17 compounds from ChEMBL document CHEMBL1153194, “Discovery of halo-nitrobenzamides with potential application against human African trypanosomiasis” (Bioorg Med Chem Lett, 2010).

For one data set, the system named is Plasmodium falciparum. In words: Antiplasmodial activity against Plasmodium falciparum 3D7 infected in human O+ erythrocytes after 72 hrs by GNA satin based assay. The class given is functional, organism-based. The following applies: 3D7, 72 h.
Another data set relates to HepG2. Description: Cytotoxicity against human HepG2 cells after 72 hrs. The class given is cell-based. The following applies: HepG2, 72 h.
In data set [1] the test system is Trypanosoma brucei brucei. In words: Antitrypanosomal activity against Trypanosoma brucei brucei after 48 hrs by luminescence assay. It is filed as functional, organism-based.
Data set [2] is described as follows: Solubility of the compound. It is filed as physicochemical.

The IC50 is the concentration needed to halve the response being measured. A higher IC50 goes with lower potency. Take `COc1ccc(N2CCN(C(=O)c3cc([N+](=O)[O-])ccc3Cl)CC2)cc1`: the results for the IC50 (in the data set on Plasmodium falciparum; with HepG2; in data set [1]) were greater than 15 µM, greater than 50 µM and 24.5 µM, respectively.
Broadly, the solubility is the concentration that dissolves in the medium under given conditions. Read a low solubility as little dissolved substance. Take `CCCCCCc1ccc(NC(=O)c2cc([N+](=O)[O-])ccc2Cl)cc1`: the results for the IC50 (in the data set on Plasmodium falciparum; in the data set with HepG2; in data set [1]) were greater than 15 µM, greater than 50 µM and 1 µM, respectively. For the same compound, in data set [2], the solubility was less than 0.1 µM.
As for `COc1ccc(NC(=O)c2cc([N+](=O)[O-])ccc2Cl)cc1`, the results for the IC50 (in the data set with Plasmodium falciparum; with HepG2; in data set [1]) were greater than 15 µM, greater than 50 µM and 19.2 µM, respectively.
As for `CCCCCCc1ccc(NC(=O)c2ccc(Cl)c([N+](=O)[O-])c2)cc1`, the IC50 with Plasmodium falciparum was greater than 15 µM; in the data set with HepG2, greater than 50 µM; in data set [1], 11.9 µM. For the same compound, the solubility in data set [2] was less than 0.1 µM.
`CCCCCCc1ccc(C(=O)Nc2ccc(Cl)c([N+](=O)[O-])c2)cc1`: the IC50 in the data set with Plasmodium falciparum was greater than 15 µM; with HepG2 it was greater than 50 µM; in data set [1] it was 6 µM. Also, the solubility in data set [2] is less than 0.1 µM.
For `O=C(Nc1ccc(Cl)cc1)c1cc([N+](=O)[O-])ccc1Cl`, the IC50 was greater than 15 µM in the data set on Plasmodium falciparum, greater than 50 µM with HepG2 and 1.5 µM in data set [1].
In the case of `O=C(NCC1CCCCC1)c1cc([N+](=O)[O-])ccc1Cl`, the IC50 was greater than 15 µM with Plasmodium falciparum, greater than 50 µM with HepG2 and 27 µM in data set [1].
As for `CCCCCCc1ccc(NC(=O)c2cc([N+](=O)[O-])ccc2F)cc1`, the 50% inhibitory concentration (IC50) came out at 7.3 µM in the data set on Plasmodium falciparum, 2.5 µM in the data set with HepG2 and 1.5 µM in data set [1]. The same compound showed a solubility in data set [2] of less than 0.1 µM.
As for `CCCCCCc1ccc(NC(=O)c2c(Cl)cccc2[N+](=O)[O-])cc1`, the IC50 in the data set with Plasmodium falciparum is greater than 15 µM; with HepG2 it was greater than 50 µM; in data set [1] it was 29.8 µM. In data set [2], this compound had a solubility of less than 0.1 µM.
Turning to `CCCCCCc1ccc(C(=O)Oc2ccc(Cl)c([N+](=O)[O-])c2)cc1`, the IC50 is greater than 15 µM in the data set on Plasmodium falciparum, greater than 50 µM in the data set on HepG2 and 24 µM in data set [1]. Further, in data set [2], the solubility was less than 0.1 µM.
For `CCCCCCc1ccc(NC(=O)c2cccc([N+](=O)[O-])c2Cl)cc1`, the IC50 is greater than 15 µM in the data set on Plasmodium falciparum, greater than 50 µM with HepG2 and greater than 50 µM in data set [1]. In addition, the solubility in data set [2] is less than 0.1 µM.
For the compound `CCCCCCc1ccc(NC(=O)c2ccc([N+](=O)[O-])cc2Cl)cc1`, the figures for the IC50 (in the data set on Plasmodium falciparum; in the data set with HepG2; in data set [1]) were greater than 15 µM, greater than 50 µM and 19 µM, respectively. Also, the solubility in data set [2] was less than 0.1 µM.
In the case of `Cc1ccc(NC(=O)c2cc([N+](=O)[O-])ccc2Cl)cc1`, the values for the IC50 (in the data set on Plasmodium falciparum; in the data set with HepG2; in data set [1]) were greater than 15 µM, greater than 50 µM and 7.7 µM, respectively.
As for `O=C(NCc1ccccc1)c1cc([N+](=O)[O-])ccc1Cl`, the concentration for half-maximal inhibition (IC50) with Plasmodium falciparum is greater than 15 µM; with HepG2 it was greater than 50 µM; in data set [1], greater than 50 µM.
For the compound `CCCCCCc1ccc(NC(=O)c2ccc(F)c([N+](=O)[O-])c2)cc1`, the IC50 with Plasmodium falciparum is greater than 15 µM; with HepG2, 10.3 µM; in data set [1], 24 µM. Further, the solubility in data set [2] was less than 0.1 µM.
In the case of `CCCCCCc1ccc(NC(=O)c2ccc(Cl)cc2[N+](=O)[O-])cc1`, the values for the IC50 (with Plasmodium falciparum; in the data set with HepG2; in data set [1]) were greater than 15 µM, greater than 50 µM and 20.8 µM, respectively. Also, the solubility in data set [2] is less than 0.1 µM.
With `CCCCCCc1ccc(C(=O)Nc2cc([N+](=O)[O-])ccc2Cl)cc1`, the values for the IC50 (in the data set on Plasmodium falciparum; in the data set on HepG2; in data set [1]) were greater than 15 µM, greater than 50 µM and greater than 50 µM, respectively. In addition, in data set [2], the solubility was less than 0.1 µM.
